In patent US10413632B2, “Cement products and methods of making and using the same” (Pioneer Surgical Technology, Inc., priority 2007, dated 2019):

From the text: The side chain amino groups of certain amino acid can serve as nucleophiles for the Michael addition to enones. Generally, amino acids are flaky or crystalline solids at room temperature, thus, they should be dissolved in a liquid to effectively participate in the set reaction.

| solubility (w/w) in PEI | solubility (w/w) in DAB | SMILES |
| --- | --- | --- |
| 46.46% | 29.4% | N[C@@H](Cc1c[nH]c2ccccc12)C(=O)O [TRP, L-Tryptophan] |
| 61.24% | 28% | N[C@@H](Cc1ccccc1)C(=O)O [PHE, L-phenylalanine] |

More lines, now with the values behind:

| SMILES | solubility (w/w) in PEI | solubility (w/w) in DAB |
| --- | --- | --- |
| Nc1nc(N)c2nc[nH]c2n1 [DAP, diaminopurine] | 18.8% | – |
| NCCCC[C@H](N)C(=O)O [LYS, L-Lysine] | – | 16.1% |
| N[C@@H](CS)C(=O)O [CYS, L-cysteine] | 18.2% | 19.5% |
| Nc1cc(O)nc(N)n1 [DAHP, 2,4-diamino-6-hydroxypyrimidine] | 13.8% | – |
